Measured values: article PMC3672848 (Journal of immunology (Baltimore, Md. : 1950), 2013)

Assays:
Assay type in all cases: cell-based
P2X7R [1] = target: T1, P2X7R (Homo sapiens, UniProt Q99572); assay: whole-cell patch clamp:[…] blocks […] ATP-evoked current
T1 sequence (Q99572 1-595): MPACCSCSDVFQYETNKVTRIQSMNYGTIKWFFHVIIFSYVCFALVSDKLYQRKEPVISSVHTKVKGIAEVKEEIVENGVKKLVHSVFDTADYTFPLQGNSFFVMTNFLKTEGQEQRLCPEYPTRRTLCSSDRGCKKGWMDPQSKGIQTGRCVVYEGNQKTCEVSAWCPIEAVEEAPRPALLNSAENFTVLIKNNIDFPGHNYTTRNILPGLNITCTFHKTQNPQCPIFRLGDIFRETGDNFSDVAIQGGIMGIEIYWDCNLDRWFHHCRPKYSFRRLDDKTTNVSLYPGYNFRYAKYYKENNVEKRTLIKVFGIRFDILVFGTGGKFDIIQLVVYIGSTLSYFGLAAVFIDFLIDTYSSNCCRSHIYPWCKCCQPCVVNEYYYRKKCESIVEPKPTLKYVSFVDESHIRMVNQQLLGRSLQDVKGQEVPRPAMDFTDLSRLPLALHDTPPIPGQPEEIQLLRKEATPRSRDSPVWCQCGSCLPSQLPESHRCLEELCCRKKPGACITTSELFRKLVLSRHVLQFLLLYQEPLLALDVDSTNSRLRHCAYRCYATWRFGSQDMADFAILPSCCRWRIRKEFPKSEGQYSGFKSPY

P2X7R [2] = target: T1, P2X7R; assay: whole-cell patch clamp, concentration-dependent inward currents
P2X7R [3] = target: T1, P2X7R; assay: inhibition of ATP-induced

Clc1cccc(-c2nnnn2Cc2cccnc2)c1Cl [A438079]
IC50 (P2X7R [1]): 2250 nM

Nc1ncnc2c1ncn2[C@@H]1O[C@H](COP(=O)(O)OP(=O)(O)OP(=O)(O)O)[C@@H](O)[C@H]1O [ATP]
EC50 (P2X7R [2]): 877 µM

O=C1CSC(=O)N1C(CCc1ccncc1)COc1ccc(-c2cccc([N+](=O)[O-])c2)cc1 (stereo not drawn) [AZ11645373]
IC50 (P2X7R [3]): 1350 nM
